{"source": "PubChem BioAssay AID1963973", "about": "(Molecular Pharmacology Branch, DTP, NCI, 2024);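 also: spheroids exposed to agents for 7 days before the viability read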", "tested_on": "883617-216-R-J1-PDC tumor spheroids, viability", "assay": "Anticancer human tumor 883617-216-R-J1-PDC patient-derived bladder carcinoma cell line growth inhibition [PI3K]", "details": "spheroids with HUVEC and MSC; for IC50: curve of first compound; for viability, T/C: stronger effect = lower value", "method_in_brief": "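Tumor cells were combined with HUVEC and MSCs into spheroids, then dosed with PI3K-inhibitor combinations over half-log ranges capped near clinical Cmax or 10 microM.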", "key": {"[1]": {"details": "second compound 0.00316 µM, first compound 0.0316 µM"}, "[2]": {"details": "second compound 0.00316 µM, first compound 0.1 µM"}, "[3]": {"details": "second compound 0.01 µM, first compound 0.0316 µM"}, "[4]": {"details": "second compound 0.01 µM, first compound 0.1 µM"}, "[5]": {"details": "second compound 0.0316 µM, first compound 0.0316 µM"}, "[6]": {"details": "second compound 0.0316 µM, first compound 0.1 µM"}, "[7]": {"details": "second compound 0.1 µM, first compound 0.0316 µM"}, "[8]": {"details": "second compound 0.1 µM, first compound 0.1 µM"}, "[9]": {"details": "second compound 0.316 µM, first compound 0.0316 µM"}, "[10]": {"details": "second compound 0.316 µM, first compound 0.1 µM"}, "[11]": {"details": "second compound 1 µM, first compound 0.0316 µM"}, "[12]": {"details": "second compound 1 µM, first compound 0.1 µM"}}}
{"smiles": "CC(C)n1nc(-c2ccc3oc(N)nc3c2)c2c(N)ncnc21", "note": "+ CC(Nc1ccc2c(c1)OCCn1cc(N3C(=O)OCC3C(F)F)nc1-2)C(N)=O", "values": [{"measurement": "IC50", "setting": "second compound 0.00316 µM", "value": 30, "unit": "nM"}, {"measurement": "IC50", "setting": "second compound 0.01 µM", "value": 24.6, "unit": "nM"}, {"measurement": "IC50", "setting": "second compound 0.0316 µM", "value": 7.16, "unit": "nM"}, {"measurement": "IC50", "setting": "second compound 0.1 µM", "value": 0.331, "unit": "nM"}, {"measurement": "IC50", "setting": "second compound 0.316 µM", "value": "< 0.316", "unit": "nM"}, {"measurement": "IC50", "setting": "second compound 1 µM", "value": "< 0.316", "unit": "nM"}, {"measurement": "viability, T/C", "setting": "second compound 0.00316 µM, first compound 0.000316 µM", "value": 96.5, "unit": "%"}, {"measurement": "viability, T/C", "setting": "second compound 0.00316 µM, first compound 0.001 µM", "value": 88.1, "unit": "%"}, {"measurement": "viability, T/C", "setting": "second compound 0.00316 µM, first compound 0.00316 µM", "value": 75.4, "unit": "%"}, {"measurement": "viability, T/C", "setting": "second compound 0.00316 µM, first compound 0.01 µM", "value": 72.1, "unit": "%"}, {"measurement": "viability, T/C", "setting": "[1]", "value": 50.5, "unit": "%"}, {"measurement": "viability, T/C", "setting": "[2]", "value": 16.6, "unit": "%"}, {"measurement": "viability, T/C", "setting": "second compound 0.01 µM, first compound 0.000316 µM", "value": 85.5, "unit": "%"}, {"measurement": "viability, T/C", "setting": "second compound 0.01 µM, first compound 0.001 µM", "value": 76.4, "unit": "%"}, {"measurement": "viability, T/C", "setting": "second compound 0.01 µM, first compound 0.00316 µM", "value": 75, "unit": "%"}, {"measurement": "viability, T/C", "setting": "second compound 0.01 µM, first compound 0.01 µM", "value": 69.8, "unit": "%"}, {"measurement": "viability, T/C", "setting": "[3]", "value": 44.2, "unit": "%"}, {"measurement": "viability, T/C", "setting": "[4]", "value": 19.6, "unit": "%"}, {"measurement": "viability, T/C", "setting": "second compound 0.0316 µM, first compound 0.000316 µM", "value": 61.9, "unit": "%"}, {"measurement": "viability, T/C", "setting": "second compound 0.0316 µM, first compound 0.001 µM", "value": 60.8, "unit": "%"}, {"measurement": "viability, T/C", "setting": "second compound 0.0316 µM, first compound 0.00316 µM", "value": 54.4, "unit": "%"}, {"measurement": "viability, T/C", "setting": "second compound 0.0316 µM, first compound 0.01 µM", "value": 49, "unit": "%"}, {"measurement": "viability, T/C", "setting": "[5]", "value": 31.4, "unit": "%"}, {"measurement": "viability, T/C", "setting": "[6]", "value": 16.6, "unit": "%"}, {"measurement": "viability, T/C", "setting": "second compound 0.1 µM, first compound 0.000316 µM", "value": 52.2, "unit": "%"}, {"measurement": "viability, T/C", "setting": "second compound 0.1 µM, first compound 0.001 µM", "value": 41.2, "unit": "%"}, {"measurement": "viability, T/C", "setting": "second compound 0.1 µM, first compound 0.00316 µM", "value": 37.5, "unit": "%"}, {"measurement": "viability, T/C", "setting": "second compound 0.1 µM, first compound 0.01 µM", "value": 32, "unit": "%"}, {"measurement": "viability, T/C", "setting": "[7]", "value": 22.1, "unit": "%"}, {"measurement": "viability, T/C", "setting": "[8]", "value": 11.5, "unit": "%"}, {"measurement": "viability, T/C", "setting": "second compound 0.316 µM, first compound 0.000316 µM", "value": 31.9, "unit": "%"}, {"measurement": "viability, T/C", "setting": "second compound 0.316 µM, first compound 0.001 µM", "value": 20.6, "unit": "%"}, {"measurement": "viability, T/C", "setting": "second compound 0.316 µM, first compound 0.00316 µM", "value": 24.8, "unit": "%"}, {"measurement": "viability, T/C", "setting": "second compound 0.316 µM, first compound 0.01 µM", "value": 15.8, "unit": "%"}, {"measurement": "viability, T/C", "setting": "[9]", "value": 14.4, "unit": "%"}, {"measurement": "viability, T/C", "setting": "[10]", "value": 10.2, "unit": "%"}, {"measurement": "viability, T/C", "setting": "second compound 1 µM, first compound 0.000316 µM", "value": 17.4, "unit": "%"}, {"measurement": "viability, T/C", "setting": "second compound 1 µM, first compound 0.001 µM", "value": 17.7, "unit": "%"}, {"measurement": "viability, T/C", "setting": "second compound 1 µM, first compound 0.00316 µM", "value": 13.9, "unit": "%"}, {"measurement": "viability, T/C", "setting": "second compound 1 µM, first compound 0.01 µM", "value": 11.2, "unit": "%"}, {"measurement": "viability, T/C", "setting": "[11]", "value": 11.5, "unit": "%"}, {"measurement": "viability, T/C", "setting": "[12]", "value": 5.87, "unit": "%"}]}
{"smiles": "CC1(C)CCC(CN2CCN(c3ccc(C(=O)NS(=O)(=O)c4ccc(NCC5CCOCC5)c([N+](=O)[O-])c4)c(Oc4cnc5[nH]ccc5c4)c3)CC2)=C(c2ccc(Cl)cc2)C1", "note": "+ CC(Nc1ccc2c(c1)OCCn1cc(N3C(=O)OCC3C(F)F)nc1-2)C(N)=O", "values": [{"measurement": "IC50", "setting": "second compound 0.00316 µM", "value": 5330, "unit": "nM"}, {"measurement": "IC50", "setting": "second compound 0.01 µM", "value": 4580, "unit": "nM"}, {"measurement": "IC50", "setting": "second compound 0.0316 µM", "value": 3770, "unit": "nM"}, {"measurement": "IC50", "setting": "second compound 0.1 µM", "value": "< 31.6", "unit": "nM"}, {"measurement": "IC50", "setting": "second compound 0.316 µM", "value": "< 31.6", "unit": "nM"}, {"measurement": "IC50", "setting": "second compound 1 µM", "value": "< 31.6", "unit": "nM"}, {"measurement": "viability, T/C", "setting": "[1]", "value": 83.5, "unit": "%"}, {"measurement": "viability, T/C", "setting": "[2]", "value": 61.8, "unit": "%"}, {"measurement": "viability, T/C", "setting": "second compound 0.00316 µM, first compound 0.316 µM", "value": 97.3, "unit": "%"}, {"measurement": "viability, T/C", "setting": "second compound 0.00316 µM, first compound 1 µM", "value": 107, "unit": "%"}, {"measurement": "viability, T/C", "setting": "second compound 0.00316 µM, first compound 3.16 µM", "value": 90.2, "unit": "%"}, {"measurement": "viability, T/C", "setting": "second compound 0.00316 µM, first compound 10 µM", "value": 4.2, "unit": "%"}, {"measurement": "viability, T/C", "setting": "[3]", "value": 86.6, "unit": "%"}, {"measurement": "viability, T/C", "setting": "[4]", "value": 74.8, "unit": "%"}, {"measurement": "viability, T/C", "setting": "second compound 0.01 µM, first compound 0.316 µM", "value": 87.8, "unit": "%"}, {"measurement": "viability, T/C", "setting": "second compound 0.01 µM, first compound 1 µM", "value": 82.8, "unit": "%"}, {"measurement": "viability, T/C", "setting": "second compound 0.01 µM, first compound 3.16 µM", "value": 71.8, "unit": "%"}, {"measurement": "viability, T/C", "setting": "second compound 0.01 µM, first compound 10 µM", "value": 3.91, "unit": "%"}, {"measurement": "viability, T/C", "setting": "[5]", "value": 66.7, "unit": "%"}, {"measurement": "viability, T/C", "setting": "[6]", "value": 51.6, "unit": "%"}, {"measurement": "viability, T/C", "setting": "second compound 0.0316 µM, first compound 0.316 µM", "value": 65.5, "unit": "%"}, {"measurement": "viability, T/C", "setting": "second compound 0.0316 µM, first compound 1 µM", "value": 65.4, "unit": "%"}, {"measurement": "viability, T/C", "setting": "second compound 0.0316 µM, first compound 3.16 µM", "value": 57.8, "unit": "%"}, {"measurement": "viability, T/C", "setting": "second compound 0.0316 µM, first compound 10 µM", "value": 5.24, "unit": "%"}, {"measurement": "viability, T/C", "setting": "[7]", "value": 29.4, "unit": "%"}, {"measurement": "viability, T/C", "setting": "[8]", "value": 36.4, "unit": "%"}, {"measurement": "viability, T/C", "setting": "second compound 0.1 µM, first compound 0.316 µM", "value": 41.5, "unit": "%"}, {"measurement": "viability, T/C", "setting": "second compound 0.1 µM, first compound 1 µM", "value": 45.8, "unit": "%"}, {"measurement": "viability, T/C", "setting": "second compound 0.1 µM, first compound 3.16 µM", "value": 47.5, "unit": "%"}, {"measurement": "viability, T/C", "setting": "second compound 0.1 µM, first compound 10 µM", "value": 2.96, "unit": "%"}, {"measurement": "viability, T/C", "setting": "[9]", "value": 21.2, "unit": "%"}, {"measurement": "viability, T/C", "setting": "[10]", "value": 22.1, "unit": "%"}, {"measurement": "viability, T/C", "setting": "second compound 0.316 µM, first compound 0.316 µM", "value": 22.1, "unit": "%"}, {"measurement": "viability, T/C", "setting": "second compound 0.316 µM, first compound 1 µM", "value": 25.4, "unit": "%"}, {"measurement": "viability, T/C", "setting": "second compound 0.316 µM, first compound 3.16 µM", "value": 26.4, "unit": "%"}, {"measurement": "viability, T/C", "setting": "second compound 0.316 µM, first compound 10 µM", "value": 2.64, "unit": "%"}, {"measurement": "viability, T/C", "setting": "[11]", "value": 17.2, "unit": "%"}, {"measurement": "viability, T/C", "setting": "[12]", "value": 13, "unit": "%"}, {"measurement": "viability, T/C", "setting": "second compound 1 µM, first compound 0.316 µM", "value": 15.3, "unit": "%"}, {"measurement": "viability, T/C", "setting": "second compound 1 µM, first compound 1 µM", "value": 14.3, "unit": "%"}, {"measurement": "viability, T/C", "setting": "second compound 1 µM, first compound 3.16 µM", "value": 21.6, "unit": "%"}, {"measurement": "viability, T/C", "setting": "second compound 1 µM, first compound 10 µM", "value": 1.47, "unit": "%"}]}
